Laboratory results taken from US20140135270A1, “MACROCYCLIC COMPOUNDS FOR INHIBITION OF INHIBITORS OF APOPTOSIS” (Ensemble Therapeutics Corp., priority 2012, published 2014).

Experiments:
[1] = target: T1, His-BIR3 (241-356, XIAP) (Homo sapiens, UniProt P98170); assay: XIAP-BIR3/SMAC Homogeneous Time Resolved Fluorescence (HTRF) Assay; type: binding; details: fluorescein labeled SMAC peptide
T1 construct: additions of His-BIR3 (241-356, XIAP), fluorescein labeled SMAC peptide

[2] = target: T2, His-BIR2-3 (125-356, C202A/C213G, XIAP) (Homo sapiens, UniProt P98170, C202A/C213G); assay: XIAP-BIR2-3 Dimeric SMAC Peptide Homogeneous Time Resolved Fluorescence (HTRF) Assay; type: binding; details: fluorescein labeled dimeric SMAC peptide
T2 construct: additions of His-BIR2-3 (125-356, C202A/C213G, XIAP), fluorescein labeled dimeric SMAC peptide
T2 sequence (P98170 125-356 C202A/C213G): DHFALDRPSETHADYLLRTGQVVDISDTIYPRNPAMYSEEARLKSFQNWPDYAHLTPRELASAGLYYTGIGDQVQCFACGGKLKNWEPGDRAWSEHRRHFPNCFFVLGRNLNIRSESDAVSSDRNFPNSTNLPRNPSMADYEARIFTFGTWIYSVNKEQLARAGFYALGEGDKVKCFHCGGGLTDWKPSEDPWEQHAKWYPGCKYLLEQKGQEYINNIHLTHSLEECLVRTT

T1 sequence (P98170 241-356): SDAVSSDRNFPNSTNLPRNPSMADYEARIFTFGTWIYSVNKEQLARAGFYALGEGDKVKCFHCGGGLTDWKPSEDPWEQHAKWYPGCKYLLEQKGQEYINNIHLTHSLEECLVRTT

| Structure (SMILES) | IC50 [1] | IC50 [2] |
| --- | --- | --- |
| CNC(C)C(=O)NC(C(=O)N1CC2CCCCOc3ccc(cc3)CC(C(=O)NS(=O)(=O)CCCNC(C)=O)NC(=O)C(Cc3ccc4ccccc4c3)NC(=O)C3CC(CN3C(=O)C(NC(=O)C(C)NC)C(C)(C)C)n3cc(nn3)COc3ccc(cc3)CC(C(=O)O)NC(=O)C(Cc3ccc4ccccc4c3)NC(=O)C1C2)C(C)(C)C (stereo not shown) [Example 27] | 3.5 nM | 2.7 nM |
| CN[C@@H](C)C(=O)N[C@H](C(=O)N1C[C@H]2C/C=C/COc3ccc(cc3)C[C@@H](C(=O)O)NC(=O)[C@H](Cc3ccc4ccccc4c3)NC(=O)[C@@H]3C[C@@H](CN3C(=O)[C@@H](NC(=O)[C@H](C)NC)C(C)(C)C)NC(=O)c3ccc(cc3)C[C@@H](C(=O)O)NC(=O)C(Cc3ccc4ccccc4c3)NC(=O)[C@@H]1C2)C(C)(C)C (stereo partly shown) [Example 28] | 3.5 nM | 1.1 nM |
| CNC(C)C(=O)NC(C(=O)N1CC2CC1C(=O)NC(Cc1ccc3ccccc3c1)C(=O)NC(C(=O)O)Cc1ccc(cc1)OCC=CCOC1CC(C(=O)NC(Cc3ccc4ccccc4c3)C(=O)NC(C(=O)O)Cc3ccc(cc3)CC(=O)N2)N(C(=O)C(NC(=O)C(C)NC)C(C)(C)C)C1)C(C)(C)C (stereo not shown) [Example 30] | 7.5 nM | 1.1 nM |
| CNC(C)C(=O)NC(C(=O)N1CC2CC1C(=O)NC(Cc1ccc3ccccc3c1)C(=O)NC(C(=O)O)Cc1ccc(cc1)OCC=CCOC1CC(C(=O)NC(Cc3ccc4ccccc4c3)C(=O)NC(C(=O)O)CCCCC(=O)N2)N(C(=O)C(NC(=O)C(C)NC)C(C)(C)C)C1)C(C)(C)C (stereo not shown) [Example 31] | 5.8 nM | 2.1 nM |
| CN[C@@H](C)C(=O)N[C@H](C(=O)N1C[C@@H]2C[C@H]1C(=O)N[C@@H](C)C(=O)N[C@H](C(=O)O)Cc1ccc(cc1)C(=O)N[C@H]1C[C@@H](C(=O)N[C@@H](Cc3ccc4ccccc4c3)C(=O)N[C@H](C(=O)O)Cc3ccc(cc3)OC/C=C/CO2)N(C(=O)[C@@H](NC(=O)[C@H](C)NC)C(C)(C)C)C1)C(C)(C)C [Example 44] | 111 nM | 3.5 nM |
| CC[C@H](NC(=O)[C@H](C)NC)C(=O)N1C[C@@H]2C[C@H]1C(=O)N[C@@H](C)C(=O)N[C@H](C(=O)O)Cc1ccc(cc1)C(=O)N[C@H]1C[C@@H](C(=O)N[C@@H](Cc3ccc4ccccc4c3)C(=O)N[C@H](C(=O)O)Cc3ccc(cc3)OC/C=C/CO2)N(C(=O)[C@@H](NC(=O)[C@H](C)NC)C(C)(C)C)C1 [Example 45] | 106 nM | 7.9 nM |
| CN[C@@H](C)C(=O)N[C@H](C(=O)N1C[C@@H]2C[C@H]1C(=O)N[C@@H](Cc1ccc3ccccc3c1)C(=O)N[C@H](C(=O)O)Cc1ccc(cc1)OC/C=C/CO[C@H]1C[C@@H](C(=O)N[C@@H](Cc3c[nH]c4ccccc34)C(=O)N[C@H](C(=O)O)Cc3ccc(cc3)C(=O)N2)N(C(=O)[C@@H](NC(=O)[C@H](C)NC)C(C)(C)C)C1)C(C)(C)C [Example 46] | 24.2 nM | 5.3 nM |
| CC[C@H](NC(=O)[C@H](C)NC)C(=O)N1C[C@@H]2C[C@H]1C(=O)N[C@@H](Cc1c[nH]c3ccccc13)C(=O)N[C@H](C(=O)O)Cc1ccc(cc1)C(=O)N[C@H]1C[C@@H](C(=O)N[C@@H](Cc3ccc4ccccc4c3)C(=O)N[C@H](C(=O)O)Cc3ccc(cc3)OC/C=C/CO2)N(C(=O)[C@@H](NC(=O)[C@H](C)NC)C(C)(C)C)C1 [Example 47] | 41.8 nM | 6.3 nM |
| CN[C@@H](C)C(=O)N[C@H](C(=O)N1C[C@@H]2C[C@H]1C(=O)N[C@@H](Cc1ccc3ccccc3c1)C(=O)N[C@H](C(=O)O)Cc1ccc(cc1)OC/C=C/CO[C@H]1C[C@@H](C(=O)N[C@@H](Cc3ccc(-c4ccccc4)cc3)C(=O)N[C@H](C(=O)O)Cc3ccc(cc3)C(=O)N2)N(C(=O)[C@@H](NC(=O)[C@H](C)NC)C(C)(C)C)C1)C(C)(C)C [Example 48] | 17.6 nM | 2.6 nM |
| CC[C@H](NC(=O)[C@H](C)NC)C(=O)N1C[C@@H]2C[C@H]1C(=O)N[C@@H](Cc1ccc(-c3ccccc3)cc1)C(=O)N[C@H](C(=O)O)Cc1ccc(cc1)C(=O)N[C@H]1C[C@@H](C(=O)N[C@@H](Cc3ccc4ccccc4c3)C(=O)N[C@H](C(=O)O)Cc3ccc(cc3)OC/C=C/CO2)N(C(=O)[C@@H](NC(=O)[C@H](C)NC)C(C)(C)C)C1 [Example 49] | 16.1 nM | 4.8 nM |
| CC[C@H](NC(=O)[C@H](C)NC)C(=O)N1C[C@@H]2C[C@H]1C(=O)N1Cc3ccccc3C[C@H]1C(=O)N[C@H](C(=O)O)Cc1ccc(cc1)C(=O)N[C@H]1C[C@@H](C(=O)N[C@@H](Cc3ccc4ccccc4c3)C(=O)N[C@H](C(=O)O)Cc3ccc(cc3)OC/C=C/CO2)N(C(=O)[C@@H](NC(=O)[C@H](C)NC)C(C)(C)C)C1 [Example 50] | 80 nM | 56.7 nM |
| CN[C@@H](C)C(=O)N[C@H](C(=O)N1C[C@@H]2C[C@H]1C(=O)N[C@@H](Cc1ccc3ccccc3c1)C(=O)N[C@H](C(=O)O)Cc1ccc(cc1)OC/C=C/CO[C@H]1C[C@@H](C(=O)N[C@@H](c3ccccc3)C(=O)N[C@H](C(=O)O)Cc3ccc(cc3)C(=O)N2)N(C(=O)[C@@H](NC(=O)[C@H](C)NC)C(C)(C)C)C1)C(C)(C)C [Example 51] | 61 nM | 4.8 nM |
| CN[C@@H](C)C(=O)N[C@H](C(=O)N1C[C@@H]2C[C@H]1C(=O)N[C@@H](Cc1ccc3ccccc3c1)C(=O)N[C@H](C(=O)O)Cc1ccc(cc1)OC/C=C/CO[C@H]1C[C@@H](C(=O)N[C@@H](c3ccccc3)C(=O)N[C@H](C(=O)O)Cc3ccc(cc3)C(=O)N2)N(C(=O)[C@@H](NC(=O)[C@H](C)NC)C(C)(C)C)C1)C(C)(C)C [Example 53] | 47.4 nM | 2.5 nM |
| CN[C@@H](C)C(=O)N[C@@H](C)C(=O)N1C[C@@H]2C[C@H]1C(=O)N[C@@H](Cc1ccc3ccccc3c1)C(=O)N[C@H](C(=O)O)CCC(=O)N[C@H]1C[C@@H](C(=O)N[C@@H](Cc3ccc4ccccc4c3)C(=O)N[C@H](C(=O)O)Cc3ccc(cc3)OC/C=C/CO2)N(C(=O)[C@@H](NC(=O)[C@H](C)NC)C(C)(C)C)C1 [Example 55] | 252 nM | 108 nM |
| CN[C@@H](C)C(=O)N[C@H](C(=O)N1C[C@@H]2C[C@H]1C(=O)N[C@@H](Cc1ccc3ccccc3c1)C(=O)N[C@H](C(=O)O)CCC(=O)N[C@H]1C[C@@H](C(=O)N[C@@H](Cc3ccc4ccccc4c3)C(=O)N[C@H](C(=O)O)Cc3ccc(cc3)OC/C=C/CO2)N(C(=O)[C@@H](NC(=O)[C@H](C)NC)C(C)(C)C)C1)C(C)C [Example 56] | 57.9 nM | 5.9 nM |
| CN[C@@H](C)C(=O)N[C@H](C(=O)N1C[C@@H]2C[C@H]1C(=O)N[C@@H](Cc1ccc3ccccc3c1)C(=O)N[C@H](C(=O)O)CCC(=O)N[C@H]1C[C@@H](C(=O)N[C@@H](Cc3ccc4ccccc4c3)C(=O)N[C@H](C(=O)O)Cc3ccc(cc3)OC/C=C/CO2)N(C(=O)[C@@H](NC(=O)[C@H](C)NC)C(C)(C)C)C1)[C@H](C)O [Example 57] | 201 nM | 12.1 nM |
| CN[C@@H](C)C(=O)N[C@@H](CC(=O)O)C(=O)N1C[C@@H]2C[C@H]1C(=O)N[C@@H](Cc1ccc3ccccc3c1)C(=O)N[C@H](C(=O)O)CCC(=O)N[C@H]1C[C@@H](C(=O)N[C@@H](Cc3ccc4ccccc4c3)C(=O)N[C@H](C(=O)O)Cc3ccc(cc3)OC/C=C/CO2)N(C(=O)[C@@H](NC(=O)[C@H](C)NC)C(C)(C)C)C1 [Example 58] | 757 nM | 138 nM |
